# Laboratory results as given in article PMC8599855, “Detection of cancer stem cells by EMT-specific biomarker-based peptide ligands” (Scientific Reports, 2021).
# Where two headings read alike, the source gives them in different places.
# Columns and labels:
# [1] = UNC0642 5 mg/kg body weight, UBC xenograft model, any time point post-treatment; cited from earlier work
# Text: In the current study, we successfully established a protocol for EMT induction via the combination of the G9a inhibitor and low-dose IR. G9a, mainly catalyzes histone H3K9 methylation, is shown to be overexpressed in many types of cancers, including gastric cancer, ovarian cancer, head and neck cancer, etc. Higher G9a expression levels represent higher methylation levels, thus leading to the transcriptional repression of tumor-suppressor genes and are also associated with poor prognosis in patients. Liu et al. explored that snail-induced EMT and repression of E-cadherin in head and neck sq ...
# [2] = Body weight of xenograft mice; type: in vivo, mouse
# Procedure: (§1) All animal procedures were performed in accordance with the Guide for Care and Use of Laboratory Animals and National Yang-Ming University’s IACUC number was 1080110. Immunodeficient male mice (BALB/cAnNCrj-nu/nu, six weeks old, 20 gm) were provided by National Laboratory Animal Center (NLAC), NARLabs, Taiwan. Mice were group-housed (6 animals per cage) in individually ventilated cages (IVC) systems and had unlimited access to food and water. […] For establishment of xenografts, 2 × 10^6 SAS-EGFP-Fluc cells in 100 μL phosphate-buffered saline (PBS) were injected subcutaneously into the animal's right shoulder and 2 × 10^6 SAS-wt cells were injected into the left leg. Growth of the implanted tumors was monitored twice a week and tumor volumes were estimated from caliper measurements according to the following formula: tumor volume = (lengthÍwidth^2) Í0.523. When tumor size reached approximately 10 mm^3, the mice were randomized into four groups of five animals per group for the following treatments: (1) DMSO (1 ml/kg body weight), (2) Unc0642 (2.5 mg/kg body weight), (3) 2 Gy of radiation, (4) Unc0642 (2.5 mg/kg body weight) and 2 Gy of radiation. Mice were given Unc0642 (cat. SML1037, Sigma-Aldrich, St. Louis, MO) intraperitoneally (i.p) every two days for 3 times. […]
# SAS-EGFP-Fluc tumor = assay: SAS xenograft mouse model: tumor burden by bioluminescence, CD44 in excised tumors; type: in vivo
# Procedure: Frozen tissues sections or cell culture slides were fixed in 4% paraformaldehyde, washed with PBS and permeated with 0.1% Triton X-100 for 5 min before blocking with 20% FBS for 10 min at 37 °C, followed by the incubation with anti-vimentin antibody (cat. MAB3400, Millipore, Bedford, MA, USA) at 4 °C overnight. Sections were washed three times in PBS, each wash lasting 5 min then stained with Cy5-conjugated goat anti- mouse IgG (1:1000, cat. ab6563, Abcam, Cambridge, UK) for 1 h in the dark. All slides were mounted with VECTASHIELD Mounting Medium with DAPI (cat. H-1200, Vector Labs, Burligame, CA, USA) and covered with cover glasses before visualization under a laser-scanning confocal microscope (Zeiss LSM 880, Jena, Germany) with Zen Blue software (ZEISS, Jena, Germany).
# as §1, with “Í0.523.” for “Í0.523. When tumor size reached approximately 10 mm^3, the mice were randomized into four groups of five animals per group for the following treatments: (1) DMSO (1 ml/kg body weight), (2) Unc0642 (2.5 mg/kg body weight), (3) 2 Gy of radiation, (4) Unc0642 (2.5 mg/kg body weight) and 2 Gy of radiation. Mice were given Unc0642 (cat. SML1037, Sigma-Aldrich, St. Louis, MO) intraperitoneally (i.p) every two days for 3 times.”
# Tumor-bearing mice were anaesthetized with 2% isoflurane and then injected D-luciferin (150 mg/kg body weight diluted in PBS) into the mouse peritoneum. […] The luminescent intensity at tumor sites was analyzed using living image software 3.2 (IVIS 50 Imaging System, Perkin Elmer, Waltham, MA, USA). Bioluminescent signal was recorded as mean photons/s/centimeter^2/steradian (photon/s/cm^2/sr).
# SAS cells = assay: AlamarBlue cell viability assay; type: cell-based, human; conditions: for IC50: Homo sapiens, AlamarBlue
# Procedure: Figure 3 In vitro induction of EMT and stemness with Unc0642/IR. (a) SAS cells were treated with indicated concentration of Unc0642 and Unc0642 + 2 Gy of radiation for 72 h respectively. Cell viability was assessed by AlamarBlue assay. All data were normalized to cells without treatment. Data are presented as mean ± SD. IC50 was calculated using SigmaPlot12 software. (b) Western blot analysis of CSC and EMT markers in SAS cells treated with different concentration of Unc 0642 (1.25 and 10 µM) and different dose of radiation (2 and 4 Gy) respectively. Internal control: b-actin. Right graph: the quantification of protein expression levels normalized against b-actin levels in each sample. *p < 0.05; **p < 0.01 by Student’s t-test. The blots were cropped from different parts of the same gel. The original blots and all replicates are presented in Supplementary Fig. 4.
# SAS-wt, SAS-EGFP-Fluc and SAS-E2-crimson-P2A::ttksr39 cells were seeded in a 96-well cell culture plate at the density of 5x10^3 cells/well overnight and incubated with serial dilutions of Unc0642 (the concentration of Unc0642 was 0.625, 1.25, 2.5, […], 5, 10, 20, 40, 80 μM respectively in culture medium). Plates were then incubated 48 hours at 37 °C under 5% CO2. Relative cell viabilities were determined by a AlamarBlue assay. 10% v/v of AlamarBlue (Serotec, Oxon, UK) was added into each well and the well containing culture medium without cells served as negative controls. Absorbance was measured at 570 nm against a reference wavelength at 600 nm using a microplate reader (Tecan, Infinite 200 pro, Zürich, Switzerland) after incubation for 24 h at 37°C. Results were presented as the percentage of AlamarBlue reduction and were corrected to background values of negative controls. IC50 values were calculated from a log([drug]) versus normalized response curve fit using SigmaPlot12.
smiles,measurement,setting,value
COc1cc2c(NC3CCN(C(C)C)CC3)nc(N3CCC(F)(F)CC3)nc2cc1OCCCN1CCCC1 [Unc0642],Body weight versus vehicle-treated group,[1],no significant weight changes
same,Body weight versus DMSO control,[2]; Unc0642 2.5 mg/kg i.p. alone,no difference
same,Body weight,"[2]; combined Unc0642 2.5 mg/kg i.p. and 2 Gy IR, until end point, p < 0.001",Drastic weight loss
same,Tumor growth (Fluc signal),"SAS-EGFP-Fluc tumor; Unc0642 2.5 mg/kg i.p. every two days for 3 times, alone, versus DMSO control, day 18",clear delay in tumor growth
same,Tumor growth (Fluc signal),"SAS-EGFP-Fluc tumor; Unc0642 2.5 mg/kg i.p. plus 2 Gy IR, every two days for 3 times","no significant reduction was observed in Unc0642 plus IR treated mice until Day 21, but drastically dropped down on day 24"
same,CD44 expression in excised tumors,"SAS-EGFP-Fluc tumor; Unc0642/IR alone or Unc0642 plus IR groups versus control, IF staining",higher CD44 expression
same,Effect on cell proliferation at the peak dose,"SAS cells; 1.25 μM Unc0642, single treatment or combined with IR, SAS cells",could induce cell proliferation
same,IC50,"SAS cells; SAS cells exposed to Unc0642 alone for 72 h, normalized to untreated cells, SigmaPlot12 fit, read-out: IC50 (50% inhibition concentration), cell viability",12.1 µM
same,IC50,"SAS cells; SAS cells, Unc0642 combined with 4 Gy of IR, 72 h, read-out: IC50, cell viability, combined with IR",4.79 µM
